Assay results: patent US11738007B2, “Treatment of glaucoma using endothelin receptor antagonists” (Perfuse Therapeutics, Inc., priority 2019, dated 2023)

Tests used:
Stability in solid state = assay type: physicochemical; conditions: 2 h @ l25° C.
Description: (§1) In the above table, the physicochemical data, e.g., solubility, were obtained following standard protocols known in the field (see, e.g., Reis et al., Mini Rev Med Chem., 2010, 10(11):1071-6; Avdeef et al., Expert Opin Drug Metab Toxicol., 2005, 1(2):325-42; Bharate et al., Comb Chem High Throughput Screen., 2016, 19(6):461-9; and Jain et al., J Pharm Biomed Anal., 2013, 86:11-35); and the biochemical data, i.e., potency for ETA/ETB, were obtained following the protocols known in the field (see, e.g., Kirkby et al., Br J Pharmacol., 2008, 153(6):1105-19; and Maguire et al., Br J Pharmacol., 2014, 171(24):5555-72).

[1] = tested on: oxygen-induced ischemic retinopathy; test: Mouse oxygen-induced ischemic retinopathy (OIR) model; assay type: in vivo, mice; conditions: IVT 1 μL of 2 μg/μL, single dose; 24, 48, 96 hours
Procedure: A relevant mice model was used to obtain the retinal hypoxia area in mice with oxygen-induced ischemic retinopathy (OIR) at different time points, as shown in FIG. 4. […] Briefly, at P17, mice with OIR (n=60) were given an injection of ET-1 antagonist (1 μL of 2 μg/μL Edonentan formulation, single dose) in one eye and PBS in the fellow eye. At 24, 48, and 96 hours after injection, mice (n=10 for each time point) were euthanized and the retinas were dissected and stained with GSA lectin and hypoxyprobe. The area of NV, area of retinal hypoxia, and the area of retinal nonperfusion were determined for each retina.

ETB receptor = target: T1, ETB receptor (Homo sapiens, UniProt P24530); test: Functional potency for ETB receptor; assay type: biochemical
T1 sequence (P24530 27-442): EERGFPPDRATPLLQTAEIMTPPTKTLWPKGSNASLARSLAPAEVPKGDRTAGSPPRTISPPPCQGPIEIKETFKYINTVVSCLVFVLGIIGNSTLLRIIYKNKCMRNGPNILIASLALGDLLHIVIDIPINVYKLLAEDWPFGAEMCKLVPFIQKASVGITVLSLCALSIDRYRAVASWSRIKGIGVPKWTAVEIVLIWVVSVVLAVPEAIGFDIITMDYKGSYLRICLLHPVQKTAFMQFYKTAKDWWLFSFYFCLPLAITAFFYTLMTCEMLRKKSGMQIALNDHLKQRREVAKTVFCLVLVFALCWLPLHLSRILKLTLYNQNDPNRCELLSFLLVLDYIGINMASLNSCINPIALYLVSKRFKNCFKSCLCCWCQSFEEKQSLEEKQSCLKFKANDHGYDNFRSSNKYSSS
Description: as §1

ETA receptor = target: T2, ETA receptor (Homo sapiens, UniProt P25101); test: Functional potency for ETA receptor; assay type: biochemical
T2 sequence (P25101 21-427): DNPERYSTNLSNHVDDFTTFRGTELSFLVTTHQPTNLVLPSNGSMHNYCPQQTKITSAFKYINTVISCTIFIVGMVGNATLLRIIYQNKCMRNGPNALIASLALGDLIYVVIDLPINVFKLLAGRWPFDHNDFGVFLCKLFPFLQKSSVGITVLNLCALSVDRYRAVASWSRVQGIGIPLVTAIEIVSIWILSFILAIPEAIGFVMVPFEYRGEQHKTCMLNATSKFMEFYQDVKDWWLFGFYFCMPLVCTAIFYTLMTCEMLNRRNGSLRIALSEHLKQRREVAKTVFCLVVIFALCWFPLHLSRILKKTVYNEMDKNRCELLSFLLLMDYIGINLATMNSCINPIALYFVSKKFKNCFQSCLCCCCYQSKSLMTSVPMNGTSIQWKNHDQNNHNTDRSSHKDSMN
Description: as §1

ETA/ETB receptor = test: ETA/ETB selectivity (specificity); assay type: biochemical; conditions: ETA versus ETB, rating in words
Description: as §1

laser-induced glaucoma = test: Laser-induced non-human primate glaucoma model, optic nerve head blood flow (LSFG); assay type: in vivo, rhesus macaque, Macaca mulatta; conditions: IVT 50 μL of 0.02, 0.2 or 2.0 mg/mL, glaucomatous eye, over 6 hours
Procedure: Non-human primates (rhesus macaque, Macaca mulatta) were obtained for this study. One eye of each animal underwent induction of elevation of intraocular pressure (IOP) by repeated laser photocoagulation of the trabecular meshwork. Imaging sessions were repeated to monitor the optic nerve head (ONH) and retinal structural changes. A study was performed to compare an experimental glaucoma eye and a contralateral healthy eye (control) of three non-human primates in global average mean blur rate (MBR) and MBR change from baseline over time as an index of ONH blood flow in a laser-induced glaucoma model. More specifically, a vehicle control, 0.02 mg/mL of Edonentan, 0.2 mg/mL of Edonentan, or 2.0 mg/mL of Edonentan was intravitreally administered (50 μL) to a glaucomatous eye of each of three non-human primates (rhesus macaque, Macaca mulatta). These graphs show the ONH blood flow in the three non-human primates after IVT administration of a vehicle alone (FIG. 7A, FIG. 7E, and FIG. 7I), 0.02 mg/mL of Edonentan (FIG. 7B, FIG. 7F, and FIG. 7J), 0.2 mg/mL of Edonentan (FIG. 7C, FIG. 7G, and FIG. 7K) or 2.0 mg/mL of Edonentan (FIG. 7D, FIG. 7H, and FIG. 7L).

Cc1onc(NS(=O)(=O)c2ccccc2-c2ccc(-c3ncco3)cc2CN(C)C(=O)CC(C)(C)C)c1C [Edonentan, N-[[2′-[[(4,5-dimethyl-3-isoxazolyl)amino]sulfonyl]-4-(2-oxazolyl)[1,1′-biphenyl]-2-yl]methyl]-N,3,3-trimethylbutanamide]
Stability in Solid State (rating) (Stability in solid state): Stable
Retinal hypoxia area [1]: improvement
IC50 (ETB receptor): 590 nM
IC50 (ETA receptor; functional potency): 1.54 nM
Functional Potency for ETA and ETB Receptors (rating) (ETA receptor; rating in words): High potency
Specificity (rating) (ETA/ETB receptor): High specificity
Optic nerve head (ONH) blood flow, mean blur rate (MBR) (laser-induced glaucoma): improvement of ONH blood flow in a dose-dependent manner
